Laboratory results from US11795510B2, “Identification of epigenomic reprogramming in cancer and uses thereof” (The Johns Hopkins University, priority 2016, dated 2023).
“Also recorded” adds a separate entry of the source.

Experiments:
Assay type in all cases: cell-based, human
[1] = test system: H3K9Me2 and H3K27Ac across CDH2 and TOP2B gene loci; test: ChIP-qPCR across CDH2 and TOP2B loci
Description: Tests for statistical significance (two-tailed students t-test) were performed on data collected from technical replicate (performed in parallel at the same time) or biological replicate (performed at different times) experiments as indicated in the figure legends using excel software for western blot densitometry, MTT assays, and tumor measurements. Whole genome bisulfite sequencing and RNA-seq were performed with HiSeq instruments (Illumina) as described in Hansen et al. (Increased methylation variation in epigenetic domains across cancer types. Nat Genet 43, 768-75 (2011)). ChIP assays were performed as previously described for fixed cells with sonication. For ChIP-qPCR, equal amounts of paired input/IP DNA were amplified by real-time PCR (Roche LightCycler96) and fold enrichments calculated. Primer sequences are listed in Supplementary Table 11. […] IP sequencing reads were normalized to their corresponding inputs. Sequencing procedures, bioinformatics methods including domain calls, and statistical analyses are described in detail within the supplementary methods section.

[2] = test system: global chromatin modifications (H3K9Me2/3, acetylation) in distant metastatic subclones (A38Lg); test: Western blots of histone modifications, distant metastatic subclones
Description: Histones were acid extracted as described and western blots performed on 3.5 ug histones, which were checked by Ponceau stains prior to western blot to ensure equal loading. Densitometry was performed with ImageJ software. RNA was extracted with Trizol reagent (Life Technologies) and isopropanol precipitated. Genomic DNA was purified with MasterPure DNA extraction reagents (Epicenter). Immunohistochemistry, H&E staining, and immunofluorescence on formalin-fixed, paraffin-embedded (FFPE) tissue microarray sections (TMAs) were performed according to standard procedures.
(§1) RNAi experiments were performed with siRNA transfections (Oligofectamine, Life Technologies) using negative control siRNA (Sigma, SIC001) and pre-designed siRNA oligonucleotides against indicated genes in parallel (Sigma, PGD: SASI_Hs02 00334150, CDH2: SASI_Hs01_00153995, TOP2B: SASI_Hs02_00311874). siRNAs against mutant KRAS^G12V (CUACGCCAACAGCUCCAAC) (SEQ ID NO:1) were custom designed. Cells were incubated with siRNAs for 4 days after transfection and harvested. For drug treatments in 2-D, cells were grown to 70-80% confluency and treated for 3 days with 250 uM 6AN or DMSO negative control.

[3] = test system: distant metastatic and precursor subclones; test: YSI metabolite analysis (glucose/glutamine consumption, lactate/glutamate secretion)
Description: Tissue samples and cell lines were previously collected from PDAC patients by rapid autopsy, sequenced-validated, and monitored for mycoplasma as previously described. Low passage (2-17) rapid autopsy cell lines were cultured at 37° C. in DMEM with 10% fetal bovine serum (FBS, Gibco). For MTT assays, 15,000 cells/well were plated into 96 well plates in triplicate, treated 12 hours later, and assayed after 24 hr (glucose responses) or 6 days (chemotherapy) with CellTiter96 (Promega). For glucose response assays, nutrient-deplete DMEM (no glucose, glutamine, pyruvate, or serum) was used with addition of glucose as indicated. […] Cells were then washed with PBS, trypsinized, and viable cells counted with a hemocytometer. Glucose uptake and lactate secretion were measured with a YSI 7100 Bioanalyzer as described in the supplementary methods. […]
YSI metabolite analysis. Metabolite consumption (glucose and glutamine) and production (lactate and glutamate) were measured using a YSI 7100 Bioanalyzer. […] At day 0 cells were counted (3 wells) or cultured in either regular medium or medium supplemented with the indicated compound. […] The area under the curve (AUC) was calculated as N(T)d/ln2([…]), where N(T) is the final cell count, d is doubling time, and T is time of experiment. […]

[4] = test system: distant metastatic and primary tumor precursor subclones; test: 3-D matrigel tumor forming assay, distant metastatic subclones
Description: as §1
3-D matrigel assays were adapted from Cheung et al. (Control of alveolar differentiation by the lineage transcription factors GATA6 and HOPX inhibits lung adenocarcinoma metastasis. Cancer Cell 23, 725-38 (2013)). […] Well-formed tumors were then counted and representative photographs taken with an EVOS instrument. 3-D suspension tumorsphere assays were performed with 20,000 starting cells/well in ultra-low attachment 6 well plates as described, and tumors counted/photographed after at least 7 days of tumor growth.

NC(=O)c1ccc(N)nc1 [6AN, 6-aminonicotinamide]
H3K9Me2 across CDH2/TOP2B loci (ChIP-qPCR) ([1]; matched lung metastasis A38Lg): enrichment of H3K9Me2 across both loci; also recorded: induced spreading of H3K9Me2 across the locus
H3K27Ac over the CDH2 genic region (ChIP-qPCR) ([1]; matched lung metastasis A38Lg): concordant reductions; also recorded: corresponding loss of H3K27Ac
H3K9Me2 and H3K27Ac enrichments across CDH2/TOP2B loci (ChIP-qPCR), control vs 6AN ([1]; peritoneal subclone A38Per): nearly identical enrichments; also recorded: no effect
persistence of chromatin changes upon removal of 6AN from the media ([2]; 3d treatment followed by removal for an additional 3d): persisted
H3K27Me3 or H4K20Me3, western blot densitometry ([2]; across distant metastatic subclones): minimal or non-recurrent effects
reprogrammed chromatin modifications (H3K9Me2, acetylation), western blot densitometry ([2]; across distant metastatic subclones, 250 uM, 3 days): quantitatively reversed; also recorded: selectively reversed
acetylation (western blot) ([2]; distant metastatic subclones): decreased
global H3K9Me2 (western blot) ([2]; distant metastatic subclones): generally increased
reprogrammed chromatin state (global H3K9Me2/3 and acetylation, western blots) ([2]; paired lung metastasis A38Lg): reversed the reprogrammed chromatin state
glutamine consumption or glutamate secretion [3]: no effect
rates of glucose consumption and lactate secretion [3]: selectively slowed
tumor formation in 3D matrigel assays [4]: selectively and strongly blocked tumor formation; also recorded: ablated tumor formation
